Tests used:
[1] = MTT relative viability, PhTERT-SEAP (hTERT-BJ1) cells; settings: human; for viability at 48 h, 1.9 µM / viability at 48 h, 19 µM / viability at 48 h, 190 µM: hTERT-BJ1 cells, stable PhTERT-SEAP reporter clone
[2] = MTT relative viability, PhTERT-SEAP (H1299) cells; settings: human
[3] = system: transcriptional activity of hTERT; assay: SEAP reporter assay of hTERT expression, PhTERT-SEAP (H1299); type: cell-based, human; settings: Homo sapiens, NCI-H1299, H1299, read-out: Relative SEAP activity (%)
Summary of the method: (§1)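 Read-out: rate of absorbance rise at 405 nm from p-nitrophenyl phosphate (12 mM final) hydrolysis by secreted alkaline phosphatase in heat-treated (65° C, 10 min) culture medium. Drugs at varying amounts were applied for 24 h after a 24 h pre-culture at 37° C.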

[4] = system: transcriptional activity of hTERT; assay: SEAP reporter assay of hTERT expression, PhTERT-SEAP (hTERT-BJ1); type: cell-based, human; settings: Homo sapiens, hTERT-BJ1, read-out: Relative SEAP activity (%)
Summary of the method: as §1

human hepatoma G2 cells = assay: Cytotoxicity assay (XTT colorimetric), Hep G2; type: cell-based; settings: Homo sapiens, HepG2; 48 h of drug exposure
rat glioma C6 cells = assay: Cytotoxicity assay (XTT colorimetric), C6 cells; type: cell-based; settings: Rattus norvegicus, C6; 48 h of drug exposure
[5] = system: iron-induced lipid peroxidation in rat brain homogenates; assay: Iron-induced lipid peroxidation in rat brain homogenates; settings: for Inhibition of LP(10 mM): mean percent inhibition (Table 3); for LP (%) (10 mM): relative percentage of inhibition (Table 1)

O=C(Oc1cccc2c1C(=O)c1cccc(OC(=O)c3ccccc3Cl)c1C2=O)c1ccccc1Cl
viability at 48 h, 1.9 µM [1]: 107 ± 5.5% | viability at 48 h, 19 µM [1]: 92 ± 4.3% | viability at 48 h, 190 µM [1]: 40 ± 4% | viability at 48 h, 1.9 µM [2]: 74 ± 5.3% | viability at 48 h, 19 µM [2]: 34 ± 3.4% | viability at 48 h, 190 µM [2]: 30 ± 1.4% | activity at 1.9 µM [3]: 93 ± 4.4% | activity at 19 µM [3]: 101 ± 4.9% | activity at 190 µM [3]: 97 ± 5.3% | activity at 1.9 µM [4]: 120 ± 10.5% | activity at 19 µM [4]: 116 ± 3.7% | activity at 190 µM [4]: 97 ± 10.8% | IC50 (human hepatoma G2 cells): 0.04 ± 0.01 µM | IC50 (rat glioma C6 cells): 40.7 ± 4.7 µM | Inhibition of LP(10 mM) ([5]; 10 mM): 5 ± 0.5%

O=C(Oc1cccc2c1C(=O)c1cccc(OC(=O)c3cccc(Cl)c3)c1C2=O)c1cccc(Cl)c1
viability at 48 h, 1.9 µM [1]: 101 ± 2.3% | viability at 48 h, 19 µM [1]: 80 ± 6.7% | viability at 48 h, 190 µM [1]: 44 ± 6% | viability at 48 h, 1.9 µM [2]: 98 ± 3.9% | viability at 48 h, 19 µM [2]: 88 ± 7.2% | viability at 48 h, 190 µM [2]: 46 ± 3.5% | activity at 1.9 µM [3]: 83 ± 5.7% | activity at 19 µM [3]: 92 ± 8.1% | activity at 190 µM [3]: 81 ± 2.5% | activity at 1.9 µM [4]: 154 ± 23% | activity at 19 µM [4]: 152 ± 15.8% | activity at 190 µM [4]: 91 ± 25.2% | IC50 (human hepatoma G2 cells): 15.1 ± 1.9 µM | IC50 (rat glioma C6 cells): 25.1 ± 2.8 µM | Inhibition of LP(10 mM) ([5]; 10 mM): 1 ± 0.1%

O=C(Oc1cccc2c1C(=O)c1cccc(OC(=O)c3ccc(Cl)cc3)c1C2=O)c1ccc(Cl)cc1
viability at 48 h, 1.9 µM [1]: 111 ± 6.5% | viability at 48 h, 19 µM [1]: 89 ± 14.3% | viability at 48 h, 190 µM [1]: 48 ± 9% | viability at 48 h, 1.9 µM [2]: 91 ± 10% | viability at 48 h, 19 µM [2]: 57 ± 1.8% | viability at 48 h, 190 µM [2]: 31 ± 1% | activity at 1.9 µM [3]: 106 ± 4.5% | activity at 19 µM [3]: 106 ± 4.9% | activity at 190 µM [3]: 97 ± 4.9% | activity at 1.9 µM [4]: 136 ± 5.7% | activity at 19 µM [4]: 123 ± 6.2% | activity at 190 µM [4]: 107 ± 6% | IC50 (human hepatoma G2 cells): 48.1 ± 4.5 µM | IC50 (rat glioma C6 cells): 38.6 ± 3.5 µM | Inhibition of LP(10 mM) ([5]; 10 mM): 2 ± 0.2%

O=C1c2cccc(SCC(O)CO)c2C(=O)c2cccc(SCC(O)CO)c21 (centres unmarked)
viability at 48 h, 2.4 µM [1]: 98 ± 10.7% | viability at 48 h, 24 µM [1]: 86 ± 5.5% | viability at 48 h, 240 µM [1]: 79 ± 8.2% | viability at 48 h, 2.4 µM [2]: 102 ± 6.2% | viability at 48 h, 24 µM [2]: 103 ± 4.2% | viability at 48 h, 240 µM [2]: 83 ± 18.2% | activity at 2.4 µM ([3]; 2.4 μM): 105 ± 21.6% | activity at 24 µM ([3]; 24 μM): 90 ± 5.7% | activity at 240 µM ([3]; 240 μM): 81 ± 6.1% | activity at 2.4 µM ([4]; 2.4 μM): 144 ± 16.9% | activity at 24 µM ([4]; 24 μM): 136 ± 10% | activity at 240 µM ([4]; 240 μM): 142 ± 9.1% | IC50 (human hepatoma G2 cells): 34.3 ± 1.8 µM | IC50 (rat glioma C6 cells): 38.5 ± 1.5 µM | LP (%) (10 mM) ([5]; 10 mM): 83 ± 1.1%

Cc1c(C)c2c(c(C)c1O)CC[C@@](C)(CCC[C@H](C)CCC[C@H](C)CCCC(C)C)O2 [(+)−α-Tocopherol, reference compound]
Inhibition (%) ([5]; 0.01 mM): 0% | Inhibition (%) ([5]; 0.1 mM): 0% | Inhibition (%) ([5]; 1 mM): 55 ± 1.7% | Inhibition (%) ([5]; 10 mM): 100% | Inhibition of LP(10 mM) ([5]; 10 mM): >100% | LP (%) (10 mM) ([5]; 10 mM): >100%

O=C1c2cccc(O)c2C(=O)c2cccc(O)c21 [Anthrarufin, 1,5-dihydroxyanthraquinone, reference compound]
Inhibition of LP(10 mM) ([5]; 10 mM): −36 ± 1.1^ % | LP (%) (10 mM) ([5]; 10 mM): −36 ± 1.9%

From patent US20050009924A1 (priority 2003, published 2005)
